The text below walks through data of publication PMC3328449, “Inhibition of Diacylglycerol–Sensitive TRPC Channels by Synthetic and Natural Steroids” (PLoS ONE, 2012).

The subject of test [1] is A7r5 cells. The test is described as follows: Whole-cell patch clamp, AVP-induced receptor-operated cation currents in A7r5 cells. To be noted: 10 µM, 100 nM AVP, measured at −70 mV, reversible, n = 8. The test is classed as cell-based. How it is done:
A7r5 cells (ATCC, Rockville, USA) were maintained in DMEM (with glutaMAX I, 4.5 g/l glucose and […] sodium pyruvate), supplemented with 10% (v/v) fetal bovine serum (PAA, Pasching, Austria).
The whole-cell patch clamp technique was employed to measure ion currents from single cells. Heat-polished patch pipettes with resistances of 2–4 MΩ were pulled from borosilicate glass capillaries (Hilgenberg, Malsfeld, Germany) using a DMZ-Universal puller (Zeitz-Instruments, Munich, Germany) and filled with standard intracellular solution containing: 120 mM CsOH, 120 mM gluconic acid, 2 mM MgCl2, 3 mM CaCl2, 5 mM Cs4-BAPTA, 10 mM HEPES (pH 7.4 adjusted with gluconic acid). For agonist-independent stimulation of TRPC currents the intracellular solution was supplemented with 30 µM AlCl3 and 10 mM NaF and cells were infused with AlF4 ^− through the patch pipette. AlF4 ^− is a non-specific activator of heterotrimeric G proteins that consequently leads to increased phospholipase C activity and TRPC channel activation. […]
(§1) Cells grown on poly-L-lysine-coated coverslips were continuously superfused with extracellular solution and substances were applied using an ALA BPS-8 perfusion system (ALA Scientific Instruments, Westbury, USA). […] Cells were held at −70 mV, and current-voltage (I–V) relationships were routinely measured every 2 or 3 s by applying voltage ramps (180 ms) from −100 mV to +80 mV. […]

In test [2] the target is T1, mTRPC4ß (Mus musculus, UniProt Q9QUQ5).
T1 construct: expressed in transfected cells
T1 sequence (Q9QUQ5 1-890 isoform Q9QUQ5-2): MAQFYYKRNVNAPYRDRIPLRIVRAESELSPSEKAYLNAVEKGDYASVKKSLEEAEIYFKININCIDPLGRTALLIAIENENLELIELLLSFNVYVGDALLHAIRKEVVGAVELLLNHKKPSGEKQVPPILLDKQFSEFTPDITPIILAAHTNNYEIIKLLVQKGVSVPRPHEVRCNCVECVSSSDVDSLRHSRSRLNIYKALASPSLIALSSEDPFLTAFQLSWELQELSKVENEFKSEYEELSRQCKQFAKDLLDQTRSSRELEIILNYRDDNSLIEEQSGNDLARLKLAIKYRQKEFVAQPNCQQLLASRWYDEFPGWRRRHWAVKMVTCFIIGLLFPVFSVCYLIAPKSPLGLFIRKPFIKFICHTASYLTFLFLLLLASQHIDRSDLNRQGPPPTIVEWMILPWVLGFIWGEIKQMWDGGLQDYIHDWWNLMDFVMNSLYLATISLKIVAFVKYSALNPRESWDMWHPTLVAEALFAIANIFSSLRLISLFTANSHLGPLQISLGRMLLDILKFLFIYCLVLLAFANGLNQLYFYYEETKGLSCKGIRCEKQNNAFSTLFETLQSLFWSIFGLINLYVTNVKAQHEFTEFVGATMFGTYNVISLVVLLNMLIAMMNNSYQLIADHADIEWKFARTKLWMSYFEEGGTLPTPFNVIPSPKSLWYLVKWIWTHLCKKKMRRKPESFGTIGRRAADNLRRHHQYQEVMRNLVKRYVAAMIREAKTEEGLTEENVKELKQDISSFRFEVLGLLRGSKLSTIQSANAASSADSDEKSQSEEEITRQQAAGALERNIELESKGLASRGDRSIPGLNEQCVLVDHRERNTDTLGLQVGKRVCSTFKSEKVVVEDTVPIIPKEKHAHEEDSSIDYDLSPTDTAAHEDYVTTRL
Put plainly: Whole-cell patch clamp, TRPC4 currents. The test is classed as cell-based. The following applies: 10 µM; not separable from current run-down. How it is done:
Cells were grown at 37°C in a humidified atmosphere (5% or 7% CO2) under standard cell culture conditions. Stable human embryonic kidney (HEK) cell lines expressing recombinant mTRPC4ß (GenBank accession number AAC05178); mTRPC5 (GenBank accession number NM_009428) or hTRPC6 (GenBank accession number AF080394) under the control of a tetracycline-inducible promoter were generated using the Flp-In T-Rex (FITR) system (Invitrogen, Karlsruhe, Germany). TRPC4/5/6 HEK-FITR cells were maintained in Dulbecco's modified eagle medium (DMEM, with glutaMAX I, 4.5 g/l glucose and […] sodium pyruvate) supplemented with 10% (v/v) fetal bovine serum (Biochrom, Berlin, Germany), 1 mM glutamine, 1 mM MEM sodium pyruvate, 40 µg/ml hygromycin (50 µg/ml for mTRPC5 HEK-FITR cells), and 15 µg/ml blasticidine HCl. Channel expression was induced by supplementing the growth medium for 18–24 h with 1 µg/ml doxycycline.
The whole-cell patch clamp technique was employed to measure ion currents from single cells. […]
as §1
(In general: In patch-clamp work, channel activity is measured electrically.)

As to `C#C[C@]1(OC(C)=O)CC[C@H]2[C@@H]3CCC4=CC(=NO)CC[C@@H]4[C@H]3CC[C@@]21CC` (mixture of isomers) [norgestimate], the “Reduction of AVP-induced receptor-operated cation currents” value in test [1] amounted to 86.5±6.0%. Further, in test [2], the “Effect on TRPC4 currents” value was “apparently small, irreversible”.
